According to patent publication US8546405B2, “Anti-viral compounds” (Abbott Laboratories, priority 2008, dated 2013):

These molecules were tested on replicon 1b-Con1 (assay: HCV subgenomic replicon luciferase reporter assay, replicon 1b-Con1). Conditions: Hepatitis C virus, 72 h; stable subgenomic replicon cell line, luciferase reporter, three days incubation; values given as ranges or bound.
Type: cell-based, Hepatitis C virus (HCV) genotype 1b-Con1

| SMILES | IC50 [nM] |
| --- | --- |
| CC(C)c1ccc2c(Nc3cc(C#Cc4ccc(Oc5ccc(O)cc5)c(Nc5ncnc6nc(C(C)C)ccc56)c4)ccc3Oc3ccc(O)cc3)ncnc2n1 [Example 25] | 0.1 to 10 |
| COc1ccc(CN(Cc2ccc(Sc3ccc(N)cc3)c(Nc3ncnc4nc(C(C)C)ccc34)c2)Cc2ccc(Sc3ccc(N)cc3)c(Nc3ncnc4nc(C(C)C)ccc34)c2)c(OC)c1 [Example 11] | 0.1 to 10 |
| Cc1ccc2c(Nc3cc(C#Cc4ccc(Sc5ccc(N)cc5)c(Nc5ncnc6nc(C)ccc56)c4)ccc3Sc3ccc(N)cc3)ncnc2n1 [Example 21] | 0.1 to 10 |
| Cc1ccc2c(Nc3cc(-c4ccc(-c5ccc(Sc6ccc(N)cc6)c(Nc6ncnc7nc(C)ccc67)c5)cc4)ccc3Sc3ccc(N)cc3)ncnc2n1 [Example 13] | 0.1 to 10 |
| CC(C)c1ccc2c(Nc3cc(NC(=O)Nc4ccc(Sc5ccc(N)cc5)c(Nc5ncnc6nc(C(C)C)ccc56)c4)ccc3Sc3ccc(N)cc3)ncnc2n1 [Example 3, 1,3-bis(4-(4-aminophenylthio)-3-(7-isopropylpyrido[2,3-d]pyrimidin-4-ylamino)phenyl)urea] | 10 to 100 |
| CC(C)c1ccc2c(Nc3cc(C(=O)NNC(=O)c4ccc(Sc5ccc(N)cc5)c(Nc5ncnc6nc(C(C)C)ccc56)c4)ccc3Sc3ccc(N)cc3)ncnc2n1 [Example 1, 4-(4-aminophenylthio)-N′-(4-(4-aminophenylthio)-3-(7-isopropylpyrido[2,3-d]pyrimidin-4-ylamino)benzoyl)-3-(7-isopropylpyrido[2,3-d]pyrimidin-4-ylamino)benzohydrazide] | 0.1 to 10 |
| CC(C)c1ccc2c(Nc3cc(C#Cc4ccc(Sc5ccc(F)cc5)c(Nc5ncnc6nc(C(C)C)ccc56)c4)ccc3Sc3ccc(F)cc3)ncnc2n1 [Example 14] | 0.1 to 10 |
| CC(C)c1ccc2c(Nc3cc(-c4ccc(-c5ccc(Sc6ccc(N)cc6)c(Nc6ncnc7nc(C(C)C)ccc67)c5)nc4)ccc3Sc3ccc(N)cc3)ncnc2n1 [Example 12] | 0.1 to 10 |
| CC(C)c1ccc2c(Nc3cc(C#Cc4ccc(Oc5ccccc5)c(Nc5ncnc6nc(C(C)C)ccc56)c4)ccc3Oc3ccccc3)ncnc2n1 [Example 17] | 0.1 to 10 |
| CC(C)c1ccc2c(Nc3cc(C#Cc4ccc(Oc5ccc(CO)cc5)c(Nc5ncnc6nc(C(C)C)ccc56)c4)ccc3Oc3ccc(CO)cc3)ncnc2n1 [Example 23] | 0.1 to 10 |
| CC(C)c1ccc2c(Nc3cc(C#Cc4ccc(Sc5ccccc5)c(Nc5ncnc6nc(C(C)C)ccc56)c4)ccc3Sc3ccccc3)ncnc2n1 [Example 15] | 0.1 to 10 |
| CC(C)c1ccc2c(Nc3cc(C#Cc4ccc(Sc5ccc(N(C)C)cc5)c(Nc5ncnc6nc(C(C)C)ccc56)c4)ccc3Sc3ccc(N(C)C)cc3)ncnc2n1 [Example 16] | 0.1 to 10 |
| CC(C)c1ccc2c(Nc3cc(C(=O)N4CCN(C(=O)c5ccc(Sc6ccc(N)cc6)c(Nc6ncnc7nc(C(C)C)ccc67)c5)CC4)ccc3Sc3ccc(N)cc3)ncnc2n1 [Example 6, piperazine-1,4-diylbis((4-(4-aminophenylthio)-3-(7-isopropylpyrido[2,3-d]pyrimidin-4-ylamino)phenyl)methanone)] | 0.1 to 10 |
| CC(C)c1ccc2c(Nc3cc(C#Cc4ccc(Sc5ccc(N)cc5)c(Nc5ncnc6nc(C(C)C)ccc56)c4)ccc3Sc3ccc(N)cc3)ncnc2n1 [Example 8, N,N′-(5,5′-(ethyne-1,2-diyl)bis(2-(4-aminophenylthio)-5,1-phenylene))bis(7-isopropylpyrido[2,3-d]pyrimidin-4-amine)] | < 0.1 |
| CC(C)c1ccc2c(Nc3cc(C(=O)NCCNC(=O)c4ccc(Sc5ccc(N)cc5)c(Nc5ncnc6nc(C(C)C)ccc56)c4)ccc3Sc3ccc(N)cc3)ncnc2n1 [Example 5, N,N′-(ethane-1,2-diyl)bis(4-(4-aminophenylthio)-3-(7-isopropylpyrido[2,3-d]pyrimidin-4-ylamino)benzamide)] | 0.1 to 10 |
| CC(C)c1ccc2c(Nc3cc(C#Cc4ccc(Oc5ccc(N)cc5)c(Nc5ncnc6nc(C(C)C)ccc56)c4)ccc3Oc3ccc(N)cc3)ncnc2n1 [Example 20] | 0.1 to 10 |
| COc1ccc(Sc2ccc(CN(Cc3ccc(Sc4ccc(OC)cc4)c(Nc4ccnc5nc(C)ccc45)c3)C(C)C)cc2Nc2ccnc3nc(C)ccc23)cc1 [Example 28] | 10 to 100 |
| CC(C)c1ccc2c(Nc3cc(C#Cc4ccc(Sc5ccc(OCc6ccccc6)cc5)c(Nc5ncnc6nc(C(C)C)ccc56)c4)ccc3Sc3ccc(OCc4ccccc4)cc3)ncnc2n1 [Example 26] | 0.1 to 10 |
| CC(C)c1ccc2c(Nc3cc(CN(Cc4ccc(Sc5ccc(N)cc5)c(Nc5ncnc6nc(C(C)C)ccc56)c4)C(C)C)ccc3Sc3ccc(N)cc3)ncnc2n1 [Example 24] | 0.1 to 10 |
| CC(C)c1ccc2c(Nc3cc(C#Cc4ccc(Sc5cccc(N)c5)c(Nc5ncnc6nc(C(C)C)ccc56)c4)ccc3Sc3cccc(N)c3)ncnc2n1 [Example 19] | 0.1 to 10 |
| CC(C)c1ccc2c(Nc3cc(CN(Cc4ccc(Sc5ccc(N)cc5)c(Nc5ncnc6nc(C(C)C)ccc56)c4)c4ccccc4)ccc3Sc3ccc(N)cc3)ncnc2n1 [Example 9] | < 0.1 |
| CC(C)c1ccc2c(Nc3cc(NC(=O)c4ccc(Sc5ccc(N)cc5)c(Nc5ncnc6nc(C(C)C)ccc56)c4)ccc3Sc3ccc(N)cc3)ncnc2n1 [Example 2, 4-(4-aminophenylthio)-N-(4-(4-aminophenylthio)-3-(7-isopropylpyrido[2,3-d]pyrimidin-4-ylamino)phenyl)-3-(7-isopropylpyrido[2,3-d]pyrimidin-4-ylamino)benzamide] | 0.1 to 10 |
| Cc1ccc2c(Nc3cc(C#Cc4ccc(Sc5ccc(F)cc5)c(Nc5ccnc6nc(C)ccc56)c4)ccc3Sc3ccc(F)cc3)ccnc2n1 [Example 22] | 10 to 100 |
| CC(C)c1ccc2c(Nc3cc(-c4ccc(-c5ccc(Sc6ccc(N)cc6)c(Nc6ncnc7nc(C(C)C)ccc67)c5)cc4)ccc3Sc3ccc(N)cc3)ncnc2n1 [Example 4, 4,4″-(4-amino-phenylsulfanyl)-N*3*,N*3″*-(7-isopropylpyrido[2,3-d]pyrimidin-4-yl)-[1,1′;4′,1″]terphenyl-3,3″-diamine] | 0.1 to 10 |
| CC(C)c1ccc2c(Nc3cc(C#Cc4ccc(Sc5ccc(O)cc5)c(Nc5ncnc6nc(C(C)C)ccc56)c4)ccc3Sc3ccc(O)cc3)ncnc2n1 [Example 18] | 0.1 to 10 |

Same assay, conditions: Hepatitis C virus; same test; cell prints lower limit in nM and upper limit in μM

| SMILES | IC50 [nM] |
| --- | --- |
| CC(C)c1ccc2c(Nc3cc(C(=O)NCCNC(=O)c4ccc(Sc5ccccc5)c(Nc5ncnc6nc(C(C)C)ccc56)c4)ccc3Sc3ccccc3)ncnc2n1 [Example 10] | 100 to 10000 |
| CC(C)c1ccc2c(Nc3cccc(C(=O)Nc4ccc(Sc5ccc(N)cc5)c(Nc5ncnc6nc(C(C)C)ccc56)c4)c3)ncnc2n1 [Example 7, N-(4-(4-aminophenylthio)-3-(7-isopropylpyrido[2,3-d]pyrimidin-4-ylamino)phenyl)-3-(7-isopropylpyrido[2,3-d]pyrimidin-4-ylamino)benzamide] | 100 to 10000 |
